Read-outs that look alike come from different tables or passages of the source.
Columns and labels:
[1] = test system: Myotonic Dystrophy 1 affected patient fibroblasts (Coriel GM04602; 1600 CTG repeats); assay: DM1 foci reduction assay (EC50 assay; CAG10-Cy3 FISH, foci per nucleus); assay type: cell-based
How it was run: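 Foci per nucleus counted by 20× imaging of 4 areas per well, after overnight FISH with 5 nM CAG10-Cy3 and DAPI staining of fixed, permeabilized cells. DM1 fibroblasts (GM04602, 1600 CTG) were dosed 48 h at 37 °C, 8 points, 3-fold dilutions, 3 μM top concentration.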

F35T cells = assay: Foci reduction in FECD (CAG10-Cy3 FISH, foci per nucleus); assay type: cell-based; conditions: F35T cells, 48 h treatment, foci per nucleus; read-out: FECD EC50, 48 h
Procedure: F35T cells were cultured in media containing Opti-MEM (ThermoFisher) supplemented with 8% FBS, 20 μg/mL ascorbic acid, […] CaCl2, 0.08% chondroitin sulfate, 1×Pen/Strep, 100 μg/mL bovine pituitary extract, 5 ng/mL epidermal growth factor, and 20 ng/mL nerve growth factor. Throughout the culture, cells were maintained in an incubator at 37° C. and 5% CO2. Media was refreshed every 48 hours. Once cells reached adequate confluency, they were harvested and seeded in 96 well plates with a density of 5000 cells per well in 200 μL of the supplemented Opti-MEM media. Cells were returned to the incubator and left to settle for 24 hours at 37° C. and 5% CO2. Cells were then treated in 8-point dose response with compounds or negative controls and incubated for 48 hours at 37° C. and 5% CO2. After treatment, cells were fixed with 4% PFA for 20 minutes at room temperature, followed by permeabilization with 70% ethanol. Cells were incubated at −20° C. for a minimum of 1 hour and maximum of 72 hours, after which the ethanol was removed, and cells were washed with PBS. Cells were rehydrated with 30% formamide and 2×SSC buffer for 10 minutes at room temperature. Cells were then incubated overnight at 37° C. in the hybridization solution containing 30% formamide, 2×SSC, 55 mg/mL dextran sulfate, 2.75 mg/mL bovine serum albumin, 0.2 μg/mL Herring sperm DNA, 1% vanadyl-ribonucleoside complex, and 0.05% 10 μM CAG10-Cy3 probe. Cells were washed twice with 30% formamide in 2×SSC, incubating the cells while shaking with the second wash at 37° C. and 200 rpm for 60 minutes. Cells were stained with 5 mg/mL DAPI 1:1000 in PBS, incubating at room temperature for 5 minutes. Cells were then washed with PBS and sealed with adhesive foil, with each well containing a final volume of 150 μL PBS. Cells were imaged on a Cytation 5 and analyzed on a foci per nucleus basis.

[2] = Homo sapiens, Fibroblast; DM1 patient fibroblasts, 48 h treatment, foci per nucleus; read-out: DM1 EC50, 48 h
[3] = Homo sapiens, Fibroblast; DM1 patient fibroblasts, foci per nucleus, 48 h treatment; read-out: DM1 EC50, 48 h

With CCCNC(=O)CCNC(=O)c1nc(NC(=O)c2cc(NC(=O)CCNC(=O)c3nc(NC(=O)CCCNC(=O)c4cc(NC(=O)c5nc(NC(=O)CCNC(=O)c6cc(NC(=O)c7nccn7C)cn6C)cn5C)cn4C)cn3C)cn2C)cn1C [Compound B-1] as the compound, how does the EC50 [1, 2] read?
Its EC50 is 100 to 500 nM.

What about the EC50 (F35T cells) of the same compound?
The EC50 was less than 100 nM.

With CCOC(=O)CCNC(=O)c1nc(NC(=O)c2cc(NC(=O)CCNC(=O)c3nc(NC(=O)[C@H](N)CCNC(=O)c4cc(NC(=O)c5nc(NC(=O)CCNC(=O)c6cc(NC(=O)c7nccn7C)cn6C)cn5C)cn4C)cn3C)cn2C)cn1C [Compound B-2] as the compound, how does the EC50 [1, 2] read?
The EC50 was 100 to 500 nM.

And the EC50 (F35T cells)?
Its EC50 is 100 to 500 nM.

How did the EC50 [1, 2] turn out when CCCNC(=O)CCNC(=O)c1nc(NC(=O)c2cc(NC(=O)CCNC(=O)c3nc(NC(=O)[C@H](N)CCNC(=O)c4cc(NC(=O)c5nc(NC(=O)CCNC(=O)c6cc(NC(=O)c7nccn7C)cn6C)cn5C)cn4C)cn3C)cn2C)cn1C [Compound B-3, N-(5-{[(3R)-3-amino-3-[(1-methyl-2-{[2-({1-methyl-5-[(1-methyl-2-{[2-(propylcarbamoyl)ethyl]carbamoyl}imidazol-4-yl)carbamoyl]pyrrol-3-yl}carbamoyl)ethyl]carbamoyl}imidazol-4-yl)carbamoyl]propyl]carbamoyl}-1-methylpyrrol-3-yl)-1-methyl-4-(3-{[1-methyl-4-(1-methylimidazole-2-amido)pyrrol-2-yl]formamido}propanamido)imidazole-2-carboxamide] was run?
The EC50 was less than 100 nM.

What about the EC50 (F35T cells) of the same compound?
Its EC50 is 500 to 1000 nM.

For CCOC(=O)CCNC(=O)c1nc(NC(=O)c2cc(NC(=O)CCNC(=O)c3nc(NC(=O)[C@@H](CCNC(=O)c4cc(NC(=O)c5nc(NC(=O)CCNC(=O)c6cc(NC(=O)c7nccn7C)cn6C)cn5C)cn4C)NC(C)=O)cn3C)cn2C)cn1C [Compound B-4], which EC50 [1, 2] is on record?
The EC50 was 100 to 500 nM.

And the EC50 (F35T cells)?
Its EC50 is 100 to 500 nM.

For CCCNC(=O)CCNC(=O)c1nc(NC(=O)c2cc(NC(=O)CCNC(=O)c3nc(NC(=O)[C@@H](CCNC(=O)c4cc(NC(=O)c5nc(NC(=O)CCNC(=O)c6cc(NC(=O)c7nccn7C)cn6C)cn5C)cn4C)NC(C)=O)cn3C)cn2C)cn1C [Compound B-5], which EC50 [1, 2] is on record?
Its EC50 is less than 100 nM.

And the EC50 (F35T cells)?
Its EC50 is 100 to 500 nM.

For Cn1cc(NC(=O)c2nc(NC(=O)CCNC(=O)c3cc(NC(=O)c4nc(NC(=O)[C@H](N)CCNC(=O)c5cc(NC(=O)c6nc(NC(=O)CCNC(=O)c7cc(NC(=O)c8nccn8C)cn7C)cn6C)cn5C)cn4C)cn3C)cn2C)cc1C(=O)NCCO [Compound B-8], which EC50 [1, 2] is on record?
The EC50 was 500 to 1000 nM.

What about the EC50 (F35T cells) of the same compound?
The EC50 was greater than 1000 nM.

What does the source list for CCCNC(=O)c1cc(NC(=O)c2nc(NC(=O)CCNC(=O)c3cc(NC(=O)c4nc(NC(=O)CCCNC(=O)c5cc(NC(=O)c6nc(NC(=O)CCNC(=O)c7cc(NC(=O)c8nccn8C)cn7C)cn6C)cn5C)cn4C)cn3C)cn2C)cn1C [Compound B-9]?
EC50 [1, 2]: > 1000 nM; EC50 (F35T cells): < 100 nM

Which results are given for CCCNC(=O)CCNC(=O)c1cc(NC(=O)c2nc(NC(=O)CCNC(=O)c3cc(NC(=O)c4nc(NC(=O)CCCNC(=O)c5cc(NC(=O)c6nc(NC(=O)CCNC(=O)c7cc(NC(=O)c8nccn8C)cn7C)cn6C)cn5C)cn4C)cn3C)cn2C)cn1C [Compound B-10]?
EC50 [1, 2]: > 1000 nM; EC50 (F35T cells): < 100 nM

How did the EC50 [1, 2] turn out when Cn1cc(NC(=O)c2nc(NC(=O)CCNC(=O)c3cc(NC(=O)c4nccn4C)cn3C)cn2C)cc1C(=O)NCCCC(=O)Nc1cn(C)c(C(=O)NCCC(=O)Nc2cc(C(=O)Nc3cn(C)c(C(=O)NCCC(=O)NCCOCCOCCOCCOCCOc4ccc(N)cc4)n3)n(C)c2)n1 [Compound B-12] was run?
The EC50 was 100 to 500 nM.

What about the EC50 (F35T cells) of the same compound?
The EC50 was 100 to 500 nM.

How did the EC50 [1, 2] turn out when Cn1cc(NC(=O)c2nc(NC(=O)CCNC(=O)c3cc(NC(=O)c4nccn4C)cn3C)cn2C)cc1C(=O)NCCCC(=O)Nc1cn(C)c(C(=O)NCCC(=O)Nc2cc(C(=O)Nc3cn(C)c(C(=O)NCCC(=O)NCCOCCOCCOc4ccc(N)cc4)n3)n(C)c2)n1 [Compound B-14] was run?
Its EC50 is 100 to 500 nM.

What about the EC50 (F35T cells) of the same compound?
The EC50 was 100 to 500 nM.

Which results are given for Cn1cc(NC(=O)c2nc(NC(=O)CCNC(=O)c3cc(NC(=O)c4nccn4C)cn3C)cn2C)cc1C(=O)NCCCC(=O)Nc1cn(C)c(C(=O)NCCC(=O)Nc2cc(C(=O)Nc3cn(C)c(C(=O)NCCC(=O)NCCOCCOc4ccc(NC(=O)OCc5ccccc5)cc4)n3)n(C)c2)n1 [Compound B-15]?
EC50 [1, 2]: < 100 nM; EC50 (F35T cells): < 100 nM

With Cn1cc(NC(=O)c2nc(NC(=O)CCNC(=O)c3cc(NC(=O)c4nccn4C)cn3C)cn2C)cc1C(=O)NCCCC(=O)Nc1cn(C)c(C(=O)NCCC(=O)Nc2cc(C(=O)Nc3cn(C)c(C(=O)NCCC(=O)NCCOCCOc4ccc(N)cc4)n3)n(C)c2)n1 [Compound B-16] as the compound, how does the EC50 [1, 2] read?
Its EC50 is 100 to 500 nM.

What about the EC50 (F35T cells) of the same compound?
The EC50 was 100 to 500 nM.

COC(=O)c1cncc(OCCOCCOCCNC(=O)c2nc(NC(=O)c3cc(NC(=O)CCNC(=O)c4nc(NC(=O)CCCNC(=O)c5cc(NC(=O)c6nc(NC(=O)CCNC(=O)c7cc(NC(=O)c8nccn8C)cn7C)cn6C)cn5C)cn4C)cn3C)cn2C)c1 [Compound B-342] was tested. Which EC50 [1, 2] did it give?
Its EC50 is 100 to 500 nM.

Which EC50 [1, 2] does the source give for CCN(CC)CCCC[C@H](NC(=O)c1cccc(C(=O)OC(C)(C)C)c1)C(=O)NCCOCCOCCOCCOCCOCCNC(=O)c1nc(NC(=O)c2cc(NC(=O)CCNC(=O)c3nc(NC(=O)CCCNC(=O)c4cc(NC(=O)c5nc(NC(=O)CCNC(=O)c6cc(NC(=O)c7nccn7C)cn6C)cn5C)cn4C)cn3C)cn2C)cn1C [Compound B-344] here?
Its EC50 is 500 to 1000 nM.

For CCN(CC)CCCC[C@H](NC(=O)c1cccc(C(=O)OC(C)(C)C)c1)C(=O)NCCOCCOCCOCCNC(=O)c1nc(NC(=O)c2cc(NC(=O)CCNC(=O)c3nc(NC(=O)CCCNC(=O)c4cc(NC(=O)c5nc(NC(=O)CCNC(=O)c6cc(NC(=O)c7nccn7C)cn6C)cn5C)cn4C)cn3C)cn2C)cn1C [Compound B-353], which EC50 [1, 2] is on record?
The EC50 was 100 to 500 nM.

For CCN(CC)CCCC[C@H](NC(=O)c1cccc(C(=O)OC(C)(C)C)c1)C(=O)NCCOCCOCCOCCNC(=O)CCNC(=O)c1nc(NC(=O)c2cc(NC(=O)CCNC(=O)c3nc(NC(=O)CCCNC(=O)c4cc(NC(=O)c5nc(NC(=O)CCNC(=O)c6cc(NC(=O)c7nccn7C)cn6C)cn5C)cn4C)cn3C)cn2C)cn1C [Compound B-355], which EC50 [1, 2] is on record?
The EC50 was 100 to 500 nM.

CN(CCCNC(=O)OC(C)(C)C)CCCNC(=O)c1cc(NC(=O)CCNC(=O)c2nc(NC(=O)CCCNC(=O)c3cc(NC(=O)c4nc(NC(=O)CCNC(=O)c5cc(NC(=O)c6nccn6C)cn5C)cn4C)cn3CCCCCCN=[N+]=[N-])cn2C)cn1C [Compound B-357] was tested. Which EC50 [1, 2] did it give?
Its EC50 is greater than 1000 nM.

Cn1cc(NC(=O)c2nc(NC(=O)CCNC(=O)c3cc(NC(=O)c4nccn4C)cn3C)cn2C)cc1C(=O)NCCCC(=O)Nc1cn(C)c(C(=O)NCCC(=O)Nc2cc(C(=O)Nc3cn(C)c(C(=O)NCCCN4CCC(C#CC#CC5CCN(C(=O)OC(C)(C)C)CC5)CC4)n3)n(C)c2)n1 [Compound B-360] was tested. Which EC50 [1, 2] did it give?
The EC50 was less than 100 nM.

Which EC50 [1, 3] does the source give for CN(C)CCCCNC(=O)c1nc(NC(=O)c2cc(NC(=O)CCNC(=O)c3nc(NC(=O)CC4(CNC(=O)c5cc(NC(=O)c6nc(NC(=O)CCNC(=O)c7cc(NC(=O)c8nccn8C)cn7C)cn6C)cn5C)CC4)cn3C)cn2C)cn1C [Compound B-434] here?
The EC50 was less than 100 nM.

For CCCNC(=O)c1nc(NC(=O)c2cc(NC(=O)CCNC(=O)c3nc(NC(=O)CC4(CNC(=O)c5cc(NC(=O)c6nc(NC(=O)CCNC(=O)c7cc(NC(=O)c8nccn8C)cn7C)cn6C)cn5C)CC4)cn3C)cn2C)cn1C [Compound B-435, 1-methyl-4-(3-{[1-methyl-4-(1-methylimidazole-2-amido)pyrrol-2-yl]formamido}propanamido)-N-[1-methyl-5-({[1-({[1-methyl-2-({2-[(1-methyl-5-{[1-methyl-2-(propylcarbamoyl)imidazol-4-yl]carbamoyl}pyrrol-3-yl)carbamoyl]ethyl}carbamoyl)imidazol-4-yl]carbamoyl}methyl)cyclopropyl]methyl}carbamoyl)pyrrol-3-yl]imidazole-2-carboxamide], which EC50 [1, 3] is on record?
Its EC50 is less than 100 nM.

CCn1cc(NC(=O)c2nc(NC(=O)CCNC(=O)c3cc(NC(=O)c4nccn4C)cn3C)cn2C)cc1C(=O)NCC1(CC(=O)Nc2cn(C)c(C(=O)NCCC(=O)Nc3cc(C(=O)Nc4cn(C)c(C(=O)NCCCCN(C)C)n4)n(C)c3)n2)CC1 [Compound B-436] was tested. Which EC50 [1, 3] did it give?
Its EC50 is less than 100 nM.

For CCCNC(=O)c1nc(NC(=O)c2cc(NC(=O)CCNC(=O)c3nc(NC(=O)CC4(CNC(=O)c5cc(NC(=O)c6nc(NC(=O)CCNC(=O)c7cc(NC(=O)c8nccn8CC(F)(F)F)cn7C)cn6C)cn5C)CNC4)cn3C)cn2C)cn1C [Compound B-440], which EC50 [1, 3] is on record?
The EC50 was 100 to 500 nM.

With CC(C)n1cc(NC(=O)c2nc(NC(=O)CCNC(=O)c3cc(NC(=O)c4nccn4C)cn3C)cn2C)cc1C(=O)NCC1(CC(=O)Nc2cn(C)c(C(=O)NCCC(=O)Nc3cc(C(=O)Nc4cn(C)c(C(=O)NCCCCN(C)C)n4)n(C)c3)n2)CC1 [Compound B-441] as the compound, how does the EC50 [1, 3] read?
Its EC50 is less than 100 nM.

From patent US20250368628A1, “METHODS AND COMPOUNDS FOR MODULATING INHERITED GENETIC DISEASES” (Design Therapeutics, Inc., priority 2022, published 2025)
